Source: ChEMBL document CHEMBL5465560, “Selectivity Literature for EUbOPEN Chemogenomic Library” (2024)
Values belong to the molecule of their own block, whether it stands above or below them.

Legend:
[1] = biological target: Inactive tyrosine-protein kinase PEAK1 (Homo sapiens) (UniProt Q9H792); experiment: Selectivity interaction (Kinase panel (Z-LYTE Assay)) EUB0001632a PEAK1; details: at 10 µM
[2] = biological target: T1, Calcium/calmodulin-dependent protein kinase type IV (Homo sapiens) (UniProt Q16566); experiment: Selectivity interaction (Kinase panel (Z-LYTE Assay)) EUB0001632a CAMK4; details: at 10 µM
T1 sequence (whole entry): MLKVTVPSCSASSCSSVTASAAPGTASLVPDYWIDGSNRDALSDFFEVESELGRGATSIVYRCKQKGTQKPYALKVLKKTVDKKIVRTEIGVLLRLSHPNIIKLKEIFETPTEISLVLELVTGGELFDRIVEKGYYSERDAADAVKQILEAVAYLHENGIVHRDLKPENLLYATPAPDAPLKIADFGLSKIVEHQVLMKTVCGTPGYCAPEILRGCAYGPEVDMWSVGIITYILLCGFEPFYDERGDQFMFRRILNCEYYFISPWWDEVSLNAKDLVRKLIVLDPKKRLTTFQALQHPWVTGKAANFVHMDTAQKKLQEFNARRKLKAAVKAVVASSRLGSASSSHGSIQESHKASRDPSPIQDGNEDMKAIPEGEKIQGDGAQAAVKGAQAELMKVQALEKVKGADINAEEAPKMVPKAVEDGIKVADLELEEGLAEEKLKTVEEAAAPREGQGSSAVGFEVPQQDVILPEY

[3] = biological target: T2, Serine/threonine-protein kinase haspin (Homo sapiens) (UniProt Q8TF76); experiment: Selectivity interaction (KinomeScan (DiscoverX)) EUB0000666a GSG2; details: at 10 µM
T2 sequence (whole entry): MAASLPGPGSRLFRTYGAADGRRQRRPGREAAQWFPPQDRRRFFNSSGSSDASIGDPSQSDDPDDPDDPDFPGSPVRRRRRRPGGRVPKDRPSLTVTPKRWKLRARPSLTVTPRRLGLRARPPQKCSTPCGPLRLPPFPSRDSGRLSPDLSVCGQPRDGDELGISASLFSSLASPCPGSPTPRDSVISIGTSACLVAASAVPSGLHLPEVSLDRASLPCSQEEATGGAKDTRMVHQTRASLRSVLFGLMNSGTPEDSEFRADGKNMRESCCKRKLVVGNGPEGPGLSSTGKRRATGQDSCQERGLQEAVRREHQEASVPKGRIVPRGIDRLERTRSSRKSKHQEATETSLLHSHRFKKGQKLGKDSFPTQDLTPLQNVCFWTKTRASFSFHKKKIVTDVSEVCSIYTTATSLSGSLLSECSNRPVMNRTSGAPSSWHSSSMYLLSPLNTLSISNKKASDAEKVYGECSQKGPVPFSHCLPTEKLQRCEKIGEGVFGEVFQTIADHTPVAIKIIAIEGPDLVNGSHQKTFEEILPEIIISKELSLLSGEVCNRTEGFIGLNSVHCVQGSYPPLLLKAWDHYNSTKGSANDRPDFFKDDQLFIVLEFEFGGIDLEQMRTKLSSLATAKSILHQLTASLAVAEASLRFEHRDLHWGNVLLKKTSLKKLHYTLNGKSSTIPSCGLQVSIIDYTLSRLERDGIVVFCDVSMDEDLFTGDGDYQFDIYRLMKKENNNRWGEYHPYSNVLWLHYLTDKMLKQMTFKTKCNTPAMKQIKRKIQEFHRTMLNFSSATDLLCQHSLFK

[4] = biological target: Casein kinase I isoform gamma-2 (Homo sapiens) (UniProt P78368); experiment: Selectivity interaction (SelectScreen profiling (Invitrogen)) EUB0000607a CSNK1G2; details: at 2 µM
[5] = biological target: NT-3 growth factor receptor (Homo sapiens, UniProt Q16288); experiment: Selectivity interaction (KinomeScan (DiscoverX)) EUB0000695a NTRK3; details: at 100 nM
[6] = biological target: Macrophage-stimulating protein receptor (Homo sapiens, UniProt Q04912); experiment: Selectivity interaction (KinomeScan (DiscoverX)) EUB0000595a MST1R; details: at 10 µM
[7] = biological target: Serine/threonine-protein kinase/endoribonuclease IRE1 (Homo sapiens) (UniProt O75460); experiment: Selectivity interaction (KinomeScan (DiscoverX)) EUB0001049a ERN1; details: at 1 µM
[8] = biological target: T3, Mitogen-activated protein kinase kinase kinase 7 (Homo sapiens) (UniProt O43318); experiment: Selectivity interaction (KinomeScan (DiscoverX)) EUB0001619a MAP3K7; details: at 1 µM
T3 sequence (whole entry): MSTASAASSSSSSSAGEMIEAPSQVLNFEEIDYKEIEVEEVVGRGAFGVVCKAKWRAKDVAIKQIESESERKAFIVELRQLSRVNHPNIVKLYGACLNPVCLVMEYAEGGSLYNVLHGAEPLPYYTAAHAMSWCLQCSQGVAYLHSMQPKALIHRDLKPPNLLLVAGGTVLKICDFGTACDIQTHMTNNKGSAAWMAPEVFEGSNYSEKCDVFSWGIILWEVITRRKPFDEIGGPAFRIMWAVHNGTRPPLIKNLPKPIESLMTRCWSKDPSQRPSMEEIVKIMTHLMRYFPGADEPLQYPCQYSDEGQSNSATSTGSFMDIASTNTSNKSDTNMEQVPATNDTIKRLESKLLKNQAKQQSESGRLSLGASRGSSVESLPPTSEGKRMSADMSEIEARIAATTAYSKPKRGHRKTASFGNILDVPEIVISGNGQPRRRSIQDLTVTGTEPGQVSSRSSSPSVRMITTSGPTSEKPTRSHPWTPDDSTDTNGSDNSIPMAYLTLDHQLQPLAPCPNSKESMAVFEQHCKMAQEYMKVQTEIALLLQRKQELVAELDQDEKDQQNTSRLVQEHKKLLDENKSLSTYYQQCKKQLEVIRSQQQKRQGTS

Inactive tyrosine-protein kinase PEAK1 (Homo sapiens), sequence (Q9H792 whole entry): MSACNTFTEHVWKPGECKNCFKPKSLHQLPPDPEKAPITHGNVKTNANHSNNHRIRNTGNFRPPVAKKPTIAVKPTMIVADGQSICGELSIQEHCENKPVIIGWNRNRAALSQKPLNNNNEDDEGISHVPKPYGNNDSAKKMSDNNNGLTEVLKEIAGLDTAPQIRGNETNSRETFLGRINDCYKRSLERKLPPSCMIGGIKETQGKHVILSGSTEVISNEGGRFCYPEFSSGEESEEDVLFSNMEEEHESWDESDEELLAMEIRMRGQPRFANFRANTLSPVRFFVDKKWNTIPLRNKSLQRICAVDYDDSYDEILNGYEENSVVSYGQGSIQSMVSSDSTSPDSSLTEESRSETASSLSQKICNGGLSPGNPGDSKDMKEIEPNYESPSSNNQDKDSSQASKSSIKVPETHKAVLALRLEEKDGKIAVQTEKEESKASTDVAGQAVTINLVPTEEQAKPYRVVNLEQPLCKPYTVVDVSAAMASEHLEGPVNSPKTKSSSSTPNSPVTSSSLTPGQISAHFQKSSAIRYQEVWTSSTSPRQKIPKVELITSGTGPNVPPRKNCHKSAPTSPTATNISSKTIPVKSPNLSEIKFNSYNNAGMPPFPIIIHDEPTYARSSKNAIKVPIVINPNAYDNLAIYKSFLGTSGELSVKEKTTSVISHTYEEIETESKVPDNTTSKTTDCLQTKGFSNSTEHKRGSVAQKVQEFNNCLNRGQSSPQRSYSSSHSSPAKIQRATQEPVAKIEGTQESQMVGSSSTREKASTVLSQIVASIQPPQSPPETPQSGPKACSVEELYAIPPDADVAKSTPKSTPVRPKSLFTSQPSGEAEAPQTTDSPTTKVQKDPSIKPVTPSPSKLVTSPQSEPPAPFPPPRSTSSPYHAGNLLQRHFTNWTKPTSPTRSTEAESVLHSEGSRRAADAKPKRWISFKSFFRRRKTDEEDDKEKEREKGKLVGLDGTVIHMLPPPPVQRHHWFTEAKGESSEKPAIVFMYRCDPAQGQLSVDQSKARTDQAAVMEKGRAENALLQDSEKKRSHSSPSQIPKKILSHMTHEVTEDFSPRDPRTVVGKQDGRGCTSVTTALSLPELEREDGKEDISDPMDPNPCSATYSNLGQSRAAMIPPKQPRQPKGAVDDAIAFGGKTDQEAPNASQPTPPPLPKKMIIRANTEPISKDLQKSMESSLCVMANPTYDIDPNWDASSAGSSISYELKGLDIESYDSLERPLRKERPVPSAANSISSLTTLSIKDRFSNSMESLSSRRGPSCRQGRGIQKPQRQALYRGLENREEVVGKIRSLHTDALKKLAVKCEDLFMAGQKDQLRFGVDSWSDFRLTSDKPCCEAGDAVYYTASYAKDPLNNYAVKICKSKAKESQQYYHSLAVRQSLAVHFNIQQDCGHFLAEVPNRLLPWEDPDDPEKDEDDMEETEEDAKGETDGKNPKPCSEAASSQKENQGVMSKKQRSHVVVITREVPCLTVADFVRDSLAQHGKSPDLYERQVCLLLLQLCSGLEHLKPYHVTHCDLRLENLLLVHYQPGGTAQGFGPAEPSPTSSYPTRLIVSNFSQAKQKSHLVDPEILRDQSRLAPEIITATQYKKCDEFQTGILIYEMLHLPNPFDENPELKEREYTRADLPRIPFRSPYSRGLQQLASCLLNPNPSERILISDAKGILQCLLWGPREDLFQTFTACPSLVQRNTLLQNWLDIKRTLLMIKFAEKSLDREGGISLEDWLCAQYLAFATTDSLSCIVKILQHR
Macrophage-stimulating protein receptor, sequence (Q04912 25-304 limits assumed): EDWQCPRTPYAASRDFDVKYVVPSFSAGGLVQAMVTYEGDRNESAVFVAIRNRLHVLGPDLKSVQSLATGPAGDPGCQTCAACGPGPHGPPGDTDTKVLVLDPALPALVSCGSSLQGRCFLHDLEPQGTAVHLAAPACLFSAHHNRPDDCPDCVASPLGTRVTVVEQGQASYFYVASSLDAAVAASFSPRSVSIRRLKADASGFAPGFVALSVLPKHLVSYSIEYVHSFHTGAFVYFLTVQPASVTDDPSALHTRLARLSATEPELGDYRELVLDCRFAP
Macrophage-stimulating protein receptor, sequence (Q04912 310-1400 limits assumed): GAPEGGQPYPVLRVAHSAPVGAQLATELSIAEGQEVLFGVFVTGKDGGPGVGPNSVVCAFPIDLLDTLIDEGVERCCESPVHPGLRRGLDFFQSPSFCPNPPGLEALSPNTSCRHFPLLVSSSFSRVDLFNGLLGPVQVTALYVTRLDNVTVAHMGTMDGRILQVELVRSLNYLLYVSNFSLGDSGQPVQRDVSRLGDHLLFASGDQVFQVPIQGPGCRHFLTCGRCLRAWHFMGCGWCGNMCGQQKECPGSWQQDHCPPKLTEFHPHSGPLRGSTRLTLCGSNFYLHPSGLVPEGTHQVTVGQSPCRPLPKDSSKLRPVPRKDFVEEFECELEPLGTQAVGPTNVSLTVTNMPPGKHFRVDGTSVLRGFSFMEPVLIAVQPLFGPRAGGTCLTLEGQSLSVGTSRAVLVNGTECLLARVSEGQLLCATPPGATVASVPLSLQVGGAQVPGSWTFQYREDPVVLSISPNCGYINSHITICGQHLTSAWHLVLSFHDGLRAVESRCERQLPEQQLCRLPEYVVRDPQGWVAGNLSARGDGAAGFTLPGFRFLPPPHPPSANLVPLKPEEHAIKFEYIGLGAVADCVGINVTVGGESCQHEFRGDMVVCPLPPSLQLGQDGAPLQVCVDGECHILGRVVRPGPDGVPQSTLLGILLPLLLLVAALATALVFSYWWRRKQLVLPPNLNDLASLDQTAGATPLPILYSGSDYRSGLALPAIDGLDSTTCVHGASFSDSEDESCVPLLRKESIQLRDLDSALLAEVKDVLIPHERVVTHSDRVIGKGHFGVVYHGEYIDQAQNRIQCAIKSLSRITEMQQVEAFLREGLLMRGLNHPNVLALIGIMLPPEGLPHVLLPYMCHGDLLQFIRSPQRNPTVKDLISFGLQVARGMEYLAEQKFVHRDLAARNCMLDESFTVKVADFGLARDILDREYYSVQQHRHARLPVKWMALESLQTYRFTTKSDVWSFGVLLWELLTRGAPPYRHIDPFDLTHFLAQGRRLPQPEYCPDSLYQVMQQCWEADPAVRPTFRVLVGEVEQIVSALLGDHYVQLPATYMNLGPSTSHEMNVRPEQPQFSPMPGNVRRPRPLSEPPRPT
NT-3 growth factor receptor, sequence (Q16288 32-839 limits assumed): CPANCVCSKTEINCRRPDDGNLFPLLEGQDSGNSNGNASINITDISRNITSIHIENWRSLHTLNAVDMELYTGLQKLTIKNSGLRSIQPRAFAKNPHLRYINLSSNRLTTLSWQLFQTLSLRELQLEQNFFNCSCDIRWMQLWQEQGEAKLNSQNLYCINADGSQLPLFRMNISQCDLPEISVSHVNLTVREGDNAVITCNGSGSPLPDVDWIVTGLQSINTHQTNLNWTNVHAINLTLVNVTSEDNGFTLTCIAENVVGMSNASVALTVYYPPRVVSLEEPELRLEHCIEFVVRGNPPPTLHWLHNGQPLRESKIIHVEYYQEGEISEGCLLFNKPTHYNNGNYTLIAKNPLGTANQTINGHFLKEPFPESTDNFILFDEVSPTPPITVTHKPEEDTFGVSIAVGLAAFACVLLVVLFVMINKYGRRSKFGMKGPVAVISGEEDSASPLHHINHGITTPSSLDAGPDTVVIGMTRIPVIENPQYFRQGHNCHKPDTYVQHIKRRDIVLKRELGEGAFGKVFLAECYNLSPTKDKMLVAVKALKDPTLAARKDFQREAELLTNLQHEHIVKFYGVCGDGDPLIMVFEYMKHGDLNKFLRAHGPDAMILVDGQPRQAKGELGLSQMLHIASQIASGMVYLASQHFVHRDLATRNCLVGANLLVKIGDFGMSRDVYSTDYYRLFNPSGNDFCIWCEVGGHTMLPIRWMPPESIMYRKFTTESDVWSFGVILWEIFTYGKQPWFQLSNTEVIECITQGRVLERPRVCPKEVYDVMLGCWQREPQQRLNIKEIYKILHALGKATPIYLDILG
Serine/threonine-protein kinase/endoribonuclease IRE1 (Homo sapiens), sequence (O75460 19-977 limits assumed): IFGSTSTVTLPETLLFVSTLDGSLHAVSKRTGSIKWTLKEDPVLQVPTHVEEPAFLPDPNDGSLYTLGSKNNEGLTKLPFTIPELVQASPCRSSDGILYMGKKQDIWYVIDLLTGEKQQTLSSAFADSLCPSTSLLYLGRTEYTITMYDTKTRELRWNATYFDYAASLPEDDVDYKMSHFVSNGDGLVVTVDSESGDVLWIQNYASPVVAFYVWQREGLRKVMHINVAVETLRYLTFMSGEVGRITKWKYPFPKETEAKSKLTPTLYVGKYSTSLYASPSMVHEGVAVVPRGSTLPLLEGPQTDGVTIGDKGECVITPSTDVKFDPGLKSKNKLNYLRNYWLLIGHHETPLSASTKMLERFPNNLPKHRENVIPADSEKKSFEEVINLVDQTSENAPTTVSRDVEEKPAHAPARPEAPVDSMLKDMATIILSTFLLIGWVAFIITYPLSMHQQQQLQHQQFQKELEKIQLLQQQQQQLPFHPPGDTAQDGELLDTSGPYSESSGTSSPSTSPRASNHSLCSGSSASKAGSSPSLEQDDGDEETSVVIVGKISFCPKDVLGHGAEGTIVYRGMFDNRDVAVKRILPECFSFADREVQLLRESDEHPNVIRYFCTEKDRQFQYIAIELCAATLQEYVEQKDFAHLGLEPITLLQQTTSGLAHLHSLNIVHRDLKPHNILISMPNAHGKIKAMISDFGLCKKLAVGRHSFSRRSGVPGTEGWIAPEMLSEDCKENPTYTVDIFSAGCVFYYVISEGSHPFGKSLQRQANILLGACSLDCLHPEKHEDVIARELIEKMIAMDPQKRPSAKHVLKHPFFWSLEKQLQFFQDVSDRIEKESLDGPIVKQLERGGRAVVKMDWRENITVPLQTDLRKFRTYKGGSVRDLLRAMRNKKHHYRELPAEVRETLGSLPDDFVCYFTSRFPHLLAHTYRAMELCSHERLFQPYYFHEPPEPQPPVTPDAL

% of control [1]: 11.7%
% of control [2]: -4.99%
Structure (SMILES): Cn1cc(-n2cnc3c(NCc4nc5cc(Cl)c(Cl)cc5[nH]4)nc(N4CCOCC4)nc32)cn1

Structure (SMILES): O=C(NOC[C@H](O)CO)c1ccc(F)c(F)c1Nc1ccc(I)cc1F
% of control [3]: 100%

Structure (SMILES): CNC(=O)Nc1ccc(-c2nc(N3CC4CCC(C3)O4)c3cnn(C4CCC5(CC4)OCCO5)c3n2)cc1
% of inhibition [4]: -6%

Structure (SMILES): Cc1cc(F)c(C(=O)Nc2cccc(-c3nncn3C(C)C)n2)cc1-n1cnc(C2CC2)c1
% of control [5]: 86%

Structure (SMILES): COCC(=O)NC/C=C/c1ccc2ncnc(Nc3ccc(Oc4ccc(C)nc4)c(C)c3)c2c1 [CP-724714]
% of control [6]: 100%

Structure (SMILES): COc1cc(Nc2nc(C)cc(-c3cnn4nc(OC)ccc34)n2)cc(C(F)(F)F)c1
% of control [7]: 100%

Structure (SMILES): N#Cc1cccc(-c2c[nH]c3ncnc(N4CCOCC4)c23)c1
% of control [8]: 55%
